Assay results as given in patent US20260078103A1, “ISOQUINOLONES AS PI3K INHIBITORS” (OnKure, Inc., priority 2022, published 2026).
Like-named read-outs stand apart in the source and are kept apart here.

Experiments:
Assay type in all cases: cell-based
[1] = system: T47D cells expressing mutant PI3Ka (H1047R); assay: In vitro cell proliferation, T47D cells (CellTiter-Glo); details: inhibition of proliferation, read-out: Avg T-47D EC50
Procedure: (§1) In Vitro Cell Proliferation: Determination of EC50 Values for Inhibition of Proliferation in T47D Cells Expressing Mutant PI3Ka (H1047R) Mutation and SKBR3 Cells Express WT PI3Ka.
(§2) T47D or SKBR3 cells were trypsinized, resuspended in culture media and seeded onto assay ready plates. T47D culture media consisted of RPMI, 10% FBS and Insulin (0.2 units/mL). SKBR3 culture media consisted of McCoys 5a and 10% FBS. Cells were seeded at a density of 1,500 cells/well and dispensed in 50 μl onto 384 well assay ready plates (Corning, 89089-790). Assay ready plates had previously been stamped with 10-point dilutions of compounds of interest, as well as controls. The Echo655 is used to stamp plates at 40 nL of compound or DMSO. Cells were grown for 72 hours at 37° Celsius and 5% CO2. After 72 hours, cells were equilibrated at room temperature for 15 minutes. 30 μL of CellTiter-Glo reagent is added to the plate, which is then shaken for 30 minutes at temperature at 300-500 rpm. Cells are then read on an Envision plate reader. The percentage of inhibition of proliferation was calculated using the following formula: % Inhibition=100×(LumD−Lumsample)/(LumD−Lumlnh), where D is obtained from cells treated with 0.1% DMSO only; lnh is obtained from cells treated with 10 uM Alpelisib. The effective concentration achieving 50% inhibition of proliferation (EC50) is calculated by fitting the Curve using Xlfit (v5.3.1.3), equation 201: Y=Bottom+(Top−Bottom)/(1+10^((LogEC50−X)*HillSlope)).

[2] = system: SKBR3 cells express WT PI3Ka; assay: In vitro cell proliferation, SKBR3 cells (CellTiter-Glo); details: inhibition of proliferation
Procedure: as §1, §2

[3] = system: phosphorylation of AKT (pAKT) in T47D cells expressing mutant PI3Ka (H1047R); assay: In vitro cell pAKT (Ser473) HTRF, T47D cells; details: cellular pAKT, T47D cells, mutant PI3Ka (H1047R), 6 hours, read-out: Avg T-47D IC50
Procedure: (§3) In Vitro Cell pAKT: Determination of IC50 Values for Inhibition of Phosphorylation of AKT (pAKT) in T47D Cells Expressing Mutant PI3Ka (H1047R) Mutation and SKBR3 Cells Express WT PI3Ka.
(§4) T47D or SKBR3 cells were trypsinized, resuspended in culture media and seeded onto assay ready plates. T47D culture media consisted of RPMI, 10% FBS and Insulin (0.2 units/mL). SKBR3 culture media consisted of McCoy's 5a and 10% FBS. Cells were seeded at a density of 5000 cells/well and dispensed in 12.5 μL onto 384 well assay ready plates (Perkin Elmer, 6008238)). Assay ready plates had previously been stamped with 10-point dilutions of compounds of interest, as well as controls. The Echo655 is used to stamp plates at 12.5 nL of compound or DMSO. Cells were grown for 6 hours at 37° Celsius and 5% CO2. After 6 hours, 4 μL of Lysis buffer reagent was added to the plate, which was then centrifuged for 1 minute at 1000 rpm. Then the plate was incubated at room temperature for 30 minutes. After 30 minutes, 4 μL of antibody mix containing Eu Cryptate, d2 Cryptate, and detection buffer, was added to the plate. The plate was centrifuged for 1 minute at 1000 rpm and then incubated overnight at room temperature. The plate was read on an Envision plate reader using the HTRF protocol. The percentage of inhibition of AKT phosphorylation was calculated using the following formula: % Inhibition=100×(pAKTHC−pAKTSample)/(pAKTHC−pAKTLC)), where pAKTHC is obtained from cells treated with 0.1% DMSO only; PAKTLC is obtained from cells treated with 10 uM Alpelisib. The IC50 (concentration achieving 50% inhibition of pAKT) is calculated by fitting the Curve using XIfit (v5.3.1.3), equation 201: Y=Bottom+(Top−Bottom)/(1+10^((LogIC50−X)*HillSlope)).

[4] = system: phosphorylation of AKT (pAKT) in SKBR3 cells express WT PI3Ka; assay: In vitro cell pAKT (Ser473) HTRF, SKBR3 cells; details: cellular pAKT
Procedure: as §3, §4

| SMILES | EC50 ([1]; Homo sapiens, T47D, 72 h) [nM] | EC50 ([2]; Homo sapiens, SK-BR-3, 72 h) [nM] | IC50 ([3]; Homo sapiens, T47D, 6 h) [nM] | IC50 ([4]; Homo sapiens, SK-BR-3, 6 h) [nM] | EC50 ([1]; 72 hours) [nM] | EC50 ([2]; 72 hours) [nM] | IC50 [3] [nM] | IC50 ([4]; 6 hours) [nM] |
| --- | --- | --- | --- | --- | --- | --- | --- | --- |
| C[C@@H](Nc1ccccc1C(=O)O)c1cc(F)cc2c(=O)n(C)c(N3C4CCC3CN(CC(F)(F)F)C4)cc12 [Example 464] | 1 to 500 | 2000 to 15000 | 1 to 500 | 2000 to 15000 | – | – | – | – |
| COC[C@@H]1CC1c1cc2c([C@@H](C)Nc3ccccc3C(=O)O)cc(C)cc2c(=O)n1C (stereo partly drawn) [Example 304] | 1 to 500 | > 15000 | 1 to 500 | > 15000 | – | – | – | – |
| Cc1cc(C(C)Nc2ccccc2C(=O)O)c2cc(N3CCC4(CCN(CC(F)(F)F)C4)CC3)n(C)c(=O)c2c1 (stereo not drawn) [Example 94] | 1 to 500 | 2000 to 15000 | 1 to 500 | 2000 to 15000 | – | – | – | – |
| C#Cc1ccc(N[C@H](C)c2cc(C)cc3c(=O)n(C)c(N4CCN(CC(F)(F)F)CC4)cc23)c(C(=O)O)n1 [Example 299] | 1 to 500 | 2000 to 15000 | 1 to 500 | 2000 to 15000 | – | – | – | – |
| Cc1cc([C@@H](C)Nc2ccccc2C(=O)O)c2cc(C3C[C@H]3C)n(C)c(=O)c2c1 (single isomer, unassigned) [Example 313] | – | – | – | – | 1 to 500 | > 15000 | 1 to 500 | > 15000 |
| CCOc1ncc(-c2cc3c([C@@H](C)Nc4cccc(F)c4C(=O)O)cc(C)cc3c(=O)n2C)s1 [Example 347] | 1 to 500 | > 15000 | 1 to 500 | > 15000 | – | – | – | – |
| Cc1cc(C(C)Nc2ccccc2C(=O)O)c2cc(N3CCN4C(=O)CCC4C3)n(C)c(=O)c2c1 (single isomer, unassigned) [Example 123] | – | – | – | – | > 15000 | > 15000 | > 15000 | > 15000 |
| Cc1cc([C@@H](C)Nc2ccccc2C(=O)O)c2cc(N3CCn4nc(C)cc4C3)n(C)c(=O)c2c1 [Example 446] | 1 to 500 | > 15000 | 1 to 500 | > 15000 | – | – | – | – |
| Cc1cc([C@@H](C)Nc2ccccc2C(=O)O)c2cc(-c3ccc(OC(F)F)nc3)n(C)c(=O)c2c1 [Example 189] | 1 to 500 | > 15000 | 1 to 500 | > 15000 | – | – | – | – |
| Cc1cc([C@@H](C)Nc2ccccc2C(=O)O)c2cc(N3CCN(C)C(C(F)(F)F)C3)n(C)c(=O)c2c1 (single isomer, unassigned) [Example 302] | – | – | – | – | 1 to 500 | > 15000 | 1 to 500 | > 15000 |
| Cc1cc([C@@H](C)Nc2ccc(Cl)nc2C(=O)O)c2cc(-c3cnc(C(F)(F)F)nc3)n(C)c(=O)c2c1 [Example 376] | 1 to 500 | > 15000 | 1 to 500 | 2000 to 15000 | – | – | – | – |
| Cc1cc([C@@H](C)Nc2ccccc2C(=O)O)c2cc(-c3cnc4c(c3)CCO4)n(C)c(=O)c2c1 [Example 252] | 1 to 500 | > 15000 | 1 to 500 | > 15000 | – | – | – | – |
| Cc1cc(C(C)Nc2ccccc2C(=O)O)c2cc(N3CC(C)(O)C3)n(C)c(=O)c2c1 (single isomer, unassigned) [Example 181] | – | > 15000 | – | > 15000 | > 15000 | – | > 15000 | – |
| Cc1cc(C(C)Nc2ccccc2C(=O)O)c2cc(N3C[C@@H]4[C@@H](C#N)[C@@H]4C3)n(C)c(=O)c2c1 (stereo partly drawn) [Example 70] | 500 to 2000 | > 15000 | 500 to 2000 | > 15000 | – | – | – | – |
| Cc1cc(C(C)Nc2ccccc2C(=O)O)c2cc(N3Cc4ccncc4C3)n(C)c(=O)c2c1 (single isomer, unassigned) [Example 107] | – | – | – | – | 1 to 500 | > 15000 | 1 to 500 | > 15000 |
| Cc1ccc(N2CCN(c3cc4c(C(C)Nc5ccccc5C(=O)O)cc(F)cc4c(=O)n3C)CC2)c(C)n1 (stereo not drawn) [Example 460] | – | – | – | – | 1 to 500 | 500 to 2000 | 1 to 500 | 500 to 2000 |
| C[C@@H](Nc1ccccc1C(=O)O)c1cc(F)cc2c(=O)n(C)c(N3CC4CCC(C3)N4CC(F)(F)F)cc12 [Example 511] | 1 to 500 | 2000 to 15000 | 1 to 500 | > 15000 | – | – | – | – |
| Cc1cc(C(C)Nc2ccccc2C(=O)O)c2cc(N3CC(Cl)C3)n(C)c(=O)c2c1 (single isomer, unassigned) [Example 79] | – | – | – | – | 1 to 500 | > 15000 | 1 to 500 | > 15000 |
| COc1cccc(C#Cc2cc3c(C(C)Nc4ccccc4C(=O)O)cc(C)cc3c(=O)n2C)c1 (single isomer, unassigned) [Example 125] | – | – | – | – | 2000 to 15000 | > 15000 | > 15000 | > 15000 |
| Cc1ccc(N2CCN(c3cc4c([C@@H](C)Nc5cccc(F)c5C(=O)O)cc(F)cc4c(=O)n3C)CC2)c(C)n1 [Example 456] | 1 to 500 | 2000 to 15000 | 1 to 500 | 2000 to 15000 | – | – | – | – |
| Cc1cc(C(C)Nc2ccccc2C(=O)O)c2cc(N3CCN(C)CC3)n(C)c(=O)c2c1 (single isomer, unassigned) [Example 13, 2-((1-(2,7-dimethyl-3-(4-methylpiperazin-1-yl)-1-oxo-1,2-dihydroisoquinolin-5-yl)ethyl)amino)benzoic acid] | – | – | – | – | 500 to 2000 | > 15000 | 500 to 2000 | > 15000 |
| Cc1cc([C@@H](C)Nc2ccccc2C(=O)O)c2cc(-c3ccncc3)n(C)c(=O)c2c1 [Example 241] | 1 to 500 | > 15000 | 1 to 500 | > 15000 | – | – | – | – |
| C[C@@H](Nc1ccccc1C(=O)O)c1cc(F)cc2c(=O)n(C)c(C34CC(c5ccc(F)cc5F)(C3)C4)cc12 [Example 578] | 1 to 500 | 2000 to 15000 | 1 to 500 | 2000 to 15000 | – | – | – | – |
| Cc1cc(C(C)Nc2ccccc2C(=O)O)c2cc(N3Cc4cncnc4C3)n(C)c(=O)c2c1 (stereo not drawn) [Example 72] | 2000 to 15000 | > 15000 | 500 to 2000 | > 15000 | – | – | – | – |
| Cc1cc([C@@H](C)Nc2cccc(F)c2C(=O)O)c2cc(N3CCN(C)[C@H](C(F)(F)F)C3)n(C)c(=O)c2c1 [Example 411] | 1 to 500 | > 15000 | 1 to 500 | > 15000 | – | – | – | – |
| Cc1cc([C@@H](C)Nc2ccccc2C(=O)O)c2cc(N3CCN(c4cnc(C(F)(F)F)nc4)CC3)n(C)c(=O)c2c1 [Example 509] | 1 to 500 | 2000 to 15000 | 1 to 500 | 2000 to 15000 | – | – | – | – |
| Cc1cc(C(C)Nc2ccccc2C(=O)O)c2cc(N3CCN(CC(F)(F)F)CC3)n(C)c(=O)c2c1 (stereo not drawn) [Example 61] | – | – | – | – | 500 to 2000 | > 15000 | 1 to 500 | > 15000 |
| Cc1cc(C(C)Nc2ccccc2C(=O)O)c2cc(N3CC4CCCC(C4)C3)n(C)c(=O)c2c1 (stereo not drawn) [Example 116] | – | – | – | – | 500 to 2000 | > 15000 | 500 to 2000 | > 15000 |
| COc1cccc(C#Cc2cc3c(C(C)Nc4ccccc4C(=O)O)cc(C)cc3c(=O)n2C)c1 (single isomer, unassigned) [Example 126] | – | – | – | – | 1 to 500 | > 15000 | 1 to 500 | > 15000 |
| CCOc1ccc(-c2cc3c(C(C)Nc4ccccc4C(=O)O)cc(C)cc3c(=O)n2C)cn1 (single isomer, unassigned) [Example 132] | – | > 15000 | – | > 15000 | 1 to 500 | – | 1 to 500 | – |
